Reference: patent US20240327364A1, “THERAPEUTIC TARGETING OF GPR68 TO INDUCE FERROPTOSIS” (University Of Maryland, Baltimore, priority 2023, published 2024)

Legend:
[1] = test system: 6 independent patient derived lines (PDX and Neurospheres); assay: 2D monolayer viability (Cell Titer-Glo); assay type: cell-based; conditions: Homo sapiens; range over the 6 lines; read-out: LC50 (the source's name)
Description: GBM neurospheres and low passage PDX models were plated in 96-well plates at 10,000 cells per well in 50 μL of neural stem cell media. The next day, the cells were treated with OGM2 compounds at the indicated concentrations, in triplicates, by adding an equal volume of medium containing 2× the final concentration of compound. Following 72 hours incubation under standard cell culture conditions, relative cell number was assessed using Cell Titer-Glo Luminescent Cell Viability Assay (Promega™) following the manufacturer's instructions. Luminescence was determined using a Cytation 5 reader and Gen5 software package (BioTek™). For U87 and U138 cell lines, one thousand cells were plated per well in a standard 96-well plate and allowed to attach for 24 hours before exposure to concentrations of vehicle, OGM2, or TMZ. Cells were treated for 72 hours and then stained with DAPI. A 10× magnification lens on a LionheartFX (BioTek™) was used to image the wells, and images were stitched together with Gen5 software (BioTek™). Automated nuclei counting was also done using the Gen5 software. Results reported as percent response relative to DMSO control. IC50 (the concentration causing 50% inhibition) was determined by GraphPad Prism™ version 6.07.
See FIG. 56, FIG. 55E, and FIG. 55F. […] Similarly.

GPR68 = GPR68 (Homo sapiens, UniProt Q15743); assay: Flow-induced calcium response, Chem1-GPR68 cells; assay type: cell-based; parameters: host or cells: Chem-1 cells (Chem1-OGR1); conditions: 5-minute pre-incubation with 3 μM OGM2
GPR68, sequence (Q15743 whole entry): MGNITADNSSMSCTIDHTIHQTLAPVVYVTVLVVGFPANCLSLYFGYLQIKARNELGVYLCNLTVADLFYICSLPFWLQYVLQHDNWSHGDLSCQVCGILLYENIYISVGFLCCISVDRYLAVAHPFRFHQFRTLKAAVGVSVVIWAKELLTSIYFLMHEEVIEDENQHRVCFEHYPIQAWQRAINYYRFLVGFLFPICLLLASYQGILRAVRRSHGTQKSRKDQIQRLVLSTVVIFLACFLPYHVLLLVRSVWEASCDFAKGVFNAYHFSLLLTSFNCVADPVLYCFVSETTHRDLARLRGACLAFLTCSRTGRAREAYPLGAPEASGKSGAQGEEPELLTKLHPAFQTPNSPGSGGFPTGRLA
Description: Chem1-GPR68 cells were stained with calcium indicator dye, and then exposed to 34 dyn/cm^2 (3.4 Pa) of force, generating a robust calcium response that could be inhibited by a 5-minute pre-incubation with 3 μM OGM2. […] Of note, one example of a method to enhance expression of ATF4 gene is using CRISPRa with sgRNA targeting the ATF4 gene, including with the s RNAs with the following sequences: […]

SW480 = assay: Cell Titer-Glo viability, Colon adenocarcinoma; assay type: cell-based; conditions: 72 hours
Description: OGM2 kills wide variety of cancer cell types. Cell sensitivity can be classified in to Very Sensitive (LC50<2 μM), Sensitive (LC50=2 to 10 μM), Mildly Sensitive (LC50>10 μM), and Refractory (no killing at 10 μM). The listed established cell were incubated with OGM2 at 2 μM or 10 μM for 72 hours under standard cell culture conditions, and relative cell number was assessed using Cell Titer-Glo Luminescent Cell Viability Assay (Promega™) following the manufacturer's instructions. Luminescence was determined using a Cytation 5 reader and Gen5 software package (BioTek™).
Cancer cells, which are very sensitive to killing by OGM2 (LCs <2 μM), with reported mRNA expression of GPR68 and the related proton sensing receptor GPR4. LC50's (concentrations causing 50% lethality) were determined using CellTiter-Glo (Promega™, G7570). Cells were plated in 12-well plates (CELLTREAT Scientific Products, 229112) in 1 ml of DMEM with high glucose, GlutaMAX, HEPES, or RPMI 1640 with Penicillin-Streptomycin (ThermoFisher™, 10564029, 11875119 and 15140122) and 10% FBS. Cells were incubated overnight at 37° C. in 5% CO2. Then 1 mL of fresh media was added with DMSO, OGM, or positive control (Erastin; APExBIO Technology, LLC, B1524) and cells incubated for 3 days. On the third day, all media was removed, cells were rinsed with 1×PBS, PBS was removed, and 200 μL of 1× Passive Lysis Buffer (Promega™, E1941) was added to each well. […]. […] Plates were briefly spun down and read on a GloMax-Multi Detection System (Promega™).
The cells listed in the tables above were incubated with OGM2 at 2 μM or 10 μM for 72 hours under standard cell culture conditions, and relative cell number was assessed using Cell Titer-Glo Luminescent Cell Viability Assay (Promega™) following the manufacturer's instructions. Luminescence was determined using a Cytation 5 reader and Gen5 software package (BioTek™). […] The consensus normalized expression value (“nTPM”=normalize transcript per million) was calculated as the maximum nTPM value for each gene in the two data sources.

XCR1 = target: T1, XCR1 (Homo sapiens, UniProt P46094); assay: GPCR Profiler; assay type: cell-based
T1 construct: host or cells: Chem-1 cells expressing Galpha15
T1 sequence (P46094 whole entry, species assumed): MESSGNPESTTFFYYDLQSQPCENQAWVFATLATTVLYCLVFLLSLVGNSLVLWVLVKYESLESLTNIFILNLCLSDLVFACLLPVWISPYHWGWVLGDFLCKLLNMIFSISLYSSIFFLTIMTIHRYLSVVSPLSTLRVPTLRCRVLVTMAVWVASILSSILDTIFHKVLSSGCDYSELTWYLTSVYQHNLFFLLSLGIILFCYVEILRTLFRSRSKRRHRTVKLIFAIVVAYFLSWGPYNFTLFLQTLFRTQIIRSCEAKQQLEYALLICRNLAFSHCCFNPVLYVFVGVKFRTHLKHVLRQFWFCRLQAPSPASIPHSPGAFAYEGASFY

[2] = target: T2, RSK2(Kin.Dom.1-N-terminal) (Homo sapiens, UniProt P51812); assay: KinomeScan; assay type: binding; conditions: read-out: % Control
T2 construct: RSK2(Kin.Dom.1-N-terminal); purchased DiscoveRx (Fremont, CA)
T2 sequence (P51812 68-327 limits assumed): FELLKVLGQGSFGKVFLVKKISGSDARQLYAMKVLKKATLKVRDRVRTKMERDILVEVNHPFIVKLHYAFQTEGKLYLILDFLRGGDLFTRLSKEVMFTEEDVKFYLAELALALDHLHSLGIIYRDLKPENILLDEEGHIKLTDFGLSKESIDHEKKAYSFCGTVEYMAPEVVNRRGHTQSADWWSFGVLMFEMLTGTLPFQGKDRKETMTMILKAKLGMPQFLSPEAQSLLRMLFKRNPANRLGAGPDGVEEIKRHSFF

CCR6 = target: T3, CCR6 (Homo sapiens, UniProt P51684); assay: GPCR Profiler; assay type: cell-based
T3 construct: host or cells: Chem-1 cells with Gα15
T3 sequence (P51684 whole entry): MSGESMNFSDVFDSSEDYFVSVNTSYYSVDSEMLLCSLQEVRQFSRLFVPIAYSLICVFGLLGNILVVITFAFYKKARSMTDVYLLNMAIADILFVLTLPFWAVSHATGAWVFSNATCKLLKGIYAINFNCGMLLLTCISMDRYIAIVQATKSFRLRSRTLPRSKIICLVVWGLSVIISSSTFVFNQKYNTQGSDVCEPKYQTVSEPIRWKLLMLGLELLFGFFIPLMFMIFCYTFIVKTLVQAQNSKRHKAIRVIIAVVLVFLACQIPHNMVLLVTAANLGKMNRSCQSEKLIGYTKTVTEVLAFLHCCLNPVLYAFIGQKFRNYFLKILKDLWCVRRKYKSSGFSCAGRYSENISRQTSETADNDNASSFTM

SBK1 = target: T4, SBK1 (Homo sapiens, UniProt Q52WX2); assay: KinomeScan; assay type: binding; conditions: read-out: % Control
T4 construct: purchased DiscoveRx (Fremont, CA)
T4 sequence (Q52WX2 whole entry): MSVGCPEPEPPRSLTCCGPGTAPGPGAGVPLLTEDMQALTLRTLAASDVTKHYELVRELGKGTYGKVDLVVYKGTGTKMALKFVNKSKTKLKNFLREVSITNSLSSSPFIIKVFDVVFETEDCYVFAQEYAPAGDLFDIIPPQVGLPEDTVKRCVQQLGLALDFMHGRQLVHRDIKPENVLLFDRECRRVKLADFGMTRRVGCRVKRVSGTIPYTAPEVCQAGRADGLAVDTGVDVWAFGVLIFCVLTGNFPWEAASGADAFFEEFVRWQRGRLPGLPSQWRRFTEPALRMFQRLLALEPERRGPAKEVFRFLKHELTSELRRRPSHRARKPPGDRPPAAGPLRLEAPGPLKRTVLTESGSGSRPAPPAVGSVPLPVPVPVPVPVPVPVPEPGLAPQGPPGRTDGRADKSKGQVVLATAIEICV

D5 = target: T5, D5 (Homo sapiens, UniProt P21918); assay: GPCR Profiler; assay type: cell-based
T5 construct: host or cells: Chem-1 cells expressing Gα15
T5 sequence (P21918 whole entry): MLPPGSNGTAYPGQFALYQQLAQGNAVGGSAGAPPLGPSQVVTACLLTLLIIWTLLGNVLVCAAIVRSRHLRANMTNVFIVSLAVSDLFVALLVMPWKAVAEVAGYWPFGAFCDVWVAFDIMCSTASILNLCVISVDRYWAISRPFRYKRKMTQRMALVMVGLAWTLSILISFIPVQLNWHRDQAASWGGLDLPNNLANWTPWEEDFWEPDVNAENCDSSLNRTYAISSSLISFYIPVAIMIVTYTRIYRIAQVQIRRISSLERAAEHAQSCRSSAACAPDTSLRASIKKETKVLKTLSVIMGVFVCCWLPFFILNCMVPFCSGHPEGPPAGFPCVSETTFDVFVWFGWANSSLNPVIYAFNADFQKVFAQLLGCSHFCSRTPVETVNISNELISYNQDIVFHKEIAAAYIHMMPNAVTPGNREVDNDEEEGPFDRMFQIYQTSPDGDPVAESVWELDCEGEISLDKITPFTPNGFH

GAK = target: T6, GAK (Homo sapiens, UniProt O14976); assay: KinomeScan; assay type: binding; conditions: read-out: % Control
T6 construct: purchased DiscoveRx (Fremont, CA)
T6 sequence (O14976 whole entry): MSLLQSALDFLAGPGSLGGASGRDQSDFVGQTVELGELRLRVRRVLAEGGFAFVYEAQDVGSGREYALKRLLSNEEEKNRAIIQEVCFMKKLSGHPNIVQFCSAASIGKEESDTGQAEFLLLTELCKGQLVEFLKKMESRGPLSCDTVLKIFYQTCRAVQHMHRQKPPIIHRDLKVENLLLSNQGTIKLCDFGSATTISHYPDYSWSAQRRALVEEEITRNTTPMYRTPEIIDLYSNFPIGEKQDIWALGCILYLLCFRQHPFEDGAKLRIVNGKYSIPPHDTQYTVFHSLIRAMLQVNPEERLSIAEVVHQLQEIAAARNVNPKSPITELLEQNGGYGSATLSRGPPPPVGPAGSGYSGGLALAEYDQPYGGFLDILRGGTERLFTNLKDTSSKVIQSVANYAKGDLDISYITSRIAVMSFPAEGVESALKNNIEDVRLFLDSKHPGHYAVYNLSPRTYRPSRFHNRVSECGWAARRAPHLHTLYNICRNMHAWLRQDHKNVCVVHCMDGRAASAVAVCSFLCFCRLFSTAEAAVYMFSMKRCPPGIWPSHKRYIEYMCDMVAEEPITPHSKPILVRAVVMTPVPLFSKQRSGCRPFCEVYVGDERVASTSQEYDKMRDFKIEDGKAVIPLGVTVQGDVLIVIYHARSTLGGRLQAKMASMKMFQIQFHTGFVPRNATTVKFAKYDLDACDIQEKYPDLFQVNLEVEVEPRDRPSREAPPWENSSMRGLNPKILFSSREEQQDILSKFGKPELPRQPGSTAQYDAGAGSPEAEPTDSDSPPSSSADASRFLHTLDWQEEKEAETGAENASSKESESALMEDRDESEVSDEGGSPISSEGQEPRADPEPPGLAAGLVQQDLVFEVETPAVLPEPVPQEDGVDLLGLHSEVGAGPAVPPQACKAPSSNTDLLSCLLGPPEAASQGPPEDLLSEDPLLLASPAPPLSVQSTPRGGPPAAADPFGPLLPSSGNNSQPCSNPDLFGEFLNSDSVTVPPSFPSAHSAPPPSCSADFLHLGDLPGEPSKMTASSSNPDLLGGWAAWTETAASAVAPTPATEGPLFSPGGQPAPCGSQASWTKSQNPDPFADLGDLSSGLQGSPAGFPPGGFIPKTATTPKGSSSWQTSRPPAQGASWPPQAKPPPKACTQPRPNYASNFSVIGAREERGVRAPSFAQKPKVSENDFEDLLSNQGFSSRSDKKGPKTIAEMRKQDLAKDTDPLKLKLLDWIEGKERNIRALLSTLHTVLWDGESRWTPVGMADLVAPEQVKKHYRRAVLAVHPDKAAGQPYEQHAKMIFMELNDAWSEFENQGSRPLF

RIOK3 = target: T7, RIOK3 (Homo sapiens, UniProt O14730); assay: KinomeScan; assay type: binding; conditions: read-out: % Control
T7 construct: purchased DiscoveRx (Fremont, CA)
T7 sequence (O14730 whole entry): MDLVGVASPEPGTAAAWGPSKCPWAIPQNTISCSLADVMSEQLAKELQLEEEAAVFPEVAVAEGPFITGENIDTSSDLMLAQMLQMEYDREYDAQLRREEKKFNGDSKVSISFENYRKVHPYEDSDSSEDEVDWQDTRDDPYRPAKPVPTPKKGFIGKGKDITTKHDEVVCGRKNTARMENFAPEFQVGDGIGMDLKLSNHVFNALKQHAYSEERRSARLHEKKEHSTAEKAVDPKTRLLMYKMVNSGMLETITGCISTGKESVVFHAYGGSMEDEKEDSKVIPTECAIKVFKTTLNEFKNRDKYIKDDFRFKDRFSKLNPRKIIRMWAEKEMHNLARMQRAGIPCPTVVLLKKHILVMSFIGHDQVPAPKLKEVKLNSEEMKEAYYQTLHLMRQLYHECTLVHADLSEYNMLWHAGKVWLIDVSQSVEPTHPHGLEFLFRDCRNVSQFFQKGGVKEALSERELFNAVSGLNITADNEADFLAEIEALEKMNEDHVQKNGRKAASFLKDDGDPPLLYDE

CAMK2B = target: T8, CAMK2B (Homo sapiens, UniProt Q13554); assay: KinomeScan; assay type: binding; conditions: read-out: % Control
T8 construct: purchased DiscoveRx (KinomeScan service)

CSNK2A1 = CSNK2A1 (Homo sapiens, UniProt P68400); assay: KinomeScan; assay type: binding; conditions: read-out: % Control
CSNK2A1, sequence (P68400 whole entry): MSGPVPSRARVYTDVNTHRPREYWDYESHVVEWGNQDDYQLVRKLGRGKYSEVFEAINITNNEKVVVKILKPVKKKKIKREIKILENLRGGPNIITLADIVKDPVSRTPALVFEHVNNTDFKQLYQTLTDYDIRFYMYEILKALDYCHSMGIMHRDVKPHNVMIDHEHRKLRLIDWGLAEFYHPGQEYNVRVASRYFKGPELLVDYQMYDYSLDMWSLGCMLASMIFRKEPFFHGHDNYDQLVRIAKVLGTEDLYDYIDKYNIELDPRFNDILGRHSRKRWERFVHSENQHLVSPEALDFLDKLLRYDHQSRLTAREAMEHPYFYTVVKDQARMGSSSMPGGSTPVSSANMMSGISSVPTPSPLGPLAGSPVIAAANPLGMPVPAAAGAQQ

CB2 = target: T9, CB2 (Homo sapiens, UniProt P34972); assay: GPCR Profiler; assay type: cell-based
T9 construct: host or cells: Chem-1 cells with promiscuous Gα15
T9 sequence (P34972 whole entry, species assumed): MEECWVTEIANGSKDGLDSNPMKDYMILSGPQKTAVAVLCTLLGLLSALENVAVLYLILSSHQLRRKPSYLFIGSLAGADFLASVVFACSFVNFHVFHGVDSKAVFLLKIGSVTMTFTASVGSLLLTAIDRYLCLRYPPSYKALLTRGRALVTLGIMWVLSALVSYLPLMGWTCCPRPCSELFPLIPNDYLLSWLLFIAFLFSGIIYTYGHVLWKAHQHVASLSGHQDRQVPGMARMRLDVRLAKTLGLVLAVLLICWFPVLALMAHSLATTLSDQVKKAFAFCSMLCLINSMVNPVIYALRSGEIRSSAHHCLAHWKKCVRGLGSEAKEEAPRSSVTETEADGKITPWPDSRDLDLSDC

Row | Compound | CC50 [1] [nM] | calcium response to 34 dyn/cm^2 flow (GPR68) | % Survival 2 μM OGM (SW480) [%] | % Survival 10 μM OGM (SW480) [%] | CC50 (SW480; Homo sapiens, SW480, read-out: LC50 (the source's name)) [nM] | Antagonism (XCR1; 10 uM) | Agonism (XCR1; 12.5 uM) | remaining binding at 10 µM [2] [%] | Antagonism (CCR6; 10 uM) | Agonism (CCR6; 12.5 uM) | remaining binding at 10 µM (SBK1) [%] | Antagonism (D5; 10 uM) | Agonism (D5; 12.5 uM) | remaining binding at 10 µM (GAK) [%] | remaining binding at 10 µM (RIOK3) [%] | remaining binding at 10 µM (CAMK2B) [%] | remaining binding at 10 µM (CSNK2A1) [%] | Antagonism (CB2; 10 uM) | Agonism (CB2; 12.5 uM)
1 | CCc1ccc2c(c1)C1(NN=C(c3ccccc3)S1)C(=O)N2 (stereo not shown) [OGM2] | 420 to 2700 | inhibited | 39.8 | 25.0 | < 2000 | – | – | – | – | – | – | – | – | – | – | – | – | – | –
2 | CCc1ccc2c(c1)C1(NN=C(c3cccc4ccccc34)S1)C(=O)N2 (stereo not shown) [OGM1, 5-ethyl-5′-naphthalen-1-ylspiro[1H-indole-3,2′-3H-1,3,4-thiadiazole]-2-one] | – | – | – | – | – | 1.8 | 0.1 | 95 | 5.1 | 1.5 | 100 | −17.8 | −1.8 | 64 | 100 | 60 | 96 | −13.8 | −2.4
